We go through 4 compounds from US4692443A, “3-bicyclicpyridinium-methyl cephalosporins” (Eli Lilly and Company, priority 1984, dated 1987).

Type in all cases: cell-based
The test system of one assay is Staph. aureus X1.1. In words: standard in vitro agar dilution assay (MIC). The following applies: Staphylococcus aureus; Staph. aureus strain X1.1; read-out: Agar Dilution MIC.
Another assay relates to Staph. aureus V41. In words: standard in vitro agar dilution assay (MIC). The following applies: Staphylococcus aureus.
The test system of another assay is Staph. aureus X400. Nature of the assay: standard in vitro agar dilution assay (MIC). As to conditions: Staphylococcus aureus; Staph. aureus strain X400.
A further assay concerns Staph. aureus S13E. In words: microbe, parasite or virus in culture. As to conditions: Staphylococcus aureus, read-out: Agar Dilution MIC.
The test system of another assay is Staph. epi EPI1. In words: standard in vitro agar dilution assay (MIC). As to conditions: Staph. epi strain EPI1.
The subject of another assay is Staph. epi 222. In words: standard in vitro agar dilution assay (MIC). The following applies: Staph. epi strain 222.
For a further assay, the system named is Strep. A C203. In words: standard in vitro agar dilution assay (MIC). As to conditions: Strep. A strain C203.
The next assay deals with Strep. PN PARK. Nature of the assay: standard in vitro agar dilution assay (MIC). The following applies: Strep. PN strain PARK.
The next assay has as its system Strep. D X66. Nature of the assay: standard in vitro agar dilution assay (MIC). The following applies: Strep. D strain X66.
Another assay relates to Strep. D 9960. In words: standard in vitro agar dilution assay (MIC). The following applies: Strep. D strain 9960.
Another assay deals with H. influ. C.L. Nature of the assay: standard in vitro agar dilution assay (MIC). As to conditions: H. influ. strain C.L.; read-out: Agar Dilution MIC.
The next assay concerns H. influ. 76. Nature of the assay: standard in vitro agar dilution assay (MIC). As to conditions: H. influ. strain 76; read-out: Agar Dilution MIC.
A further assay has as its system E. coli N10. In words: standard in vitro agar dilution assay (MIC). The following applies: Escherichia coli.
The test system of another assay is E. coli EC14. Nature of the assay: standard in vitro agar dilution assay (MIC). As to conditions: Escherichia coli; E. coli strain EC14; read-out: Agar Dilution MIC.
Another assay concerns E. coli TEM. Nature of the assay: standard in vitro agar dilution assay (MIC). As to conditions: Escherichia coli; E. coli strain TEM; read-out: Agar Dilution MIC.
The next assay relates to Klebsiella X26. Nature of the assay: standard in vitro agar dilution assay (MIC). As to conditions: Klebsiella strain X26; read-out: Agar Dilution MIC.
In a further assay the test system is Klebsiella KAE. In words: standard in vitro agar dilution assay (MIC). As to conditions: read-out: Agar Dilution MIC.
Another assay concerns Klebsiella X68. In words: standard in vitro agar dilution assay (MIC). The following applies: Klebsiella strain X68; read-out: Agar Dilution MIC.
The test system of assay [1] is Enterobacter aerogenes C32. In words: standard in vitro agar dilution assay (MIC). As to conditions: Klebsiella aerogenes.
In the next assay the test system is Pseudomonas X528. Nature of the assay: standard in vitro agar dilution assay (MIC). As to conditions: Pseudomonas strain X528. The source says: The antibacterial activity of several representative compounds of the invention has been evaluated in standard in vitro agar dilution assays. The following Table presents typical minimum inhibitory concentrations (MIC's) in μg /ml for exemplary compounds when evaluated against typical Gram + and Gram - microorganism.

The next assay relates to Pseudomonas X239. Nature of the assay: standard in vitro agar dilution assay (MIC). The following applies: Pseudomonas strain X239.
The subject of the next assay is Salmonella X514. In words: standard in vitro agar dilution assay (MIC). As to conditions: Salmonella strain X514; read-out: Agar Dilution MIC.
Setting [2] is: Staph. aureus strain V41, read-out: Agar Dilution MIC.
[3] abbreviates: E. coli strain N10, read-out: Agar Dilution MIC.
[4] abbreviates: Enterobacter aerogenes strain C32, read-out: Agar Dilution MIC.

≈ marks a conversion by molar mass, not a printed value. Like-named read-outs stand apart in the source and are kept apart here.

Turning to `CO/N=C(\C(=O)NC1C(=O)N2C(C(=O)[O-])=C(C[n+]3ccc4sc(C)nc4c3)CSC12)c1csc(N)n1` (centres unmarked) [Example 13], the MIC in the assay on Staph. aureus X1.1 worked out at 1 mg/L (≈ 1.83 µM); in the assay with Staph. aureus V41 (setting [2]), 8 mg/L (≈ 14.7 µM); with Staph. aureus X400, 32 mg/L (≈ 58.6 µM); with Staph. aureus S13E, 8 mg/L (≈ 14.7 µM); in the assay with Staph. epi EPI1, 2 mg/L (≈ 3.67 µM); in the assay on Staph. epi 222, 1 mg/L (≈ 1.83 µM). For the same compound, the MIC in the assay with Strep. A C203 is 0.015 mg/L (≈ 0.0275 µM); with Strep. PN PARK, less than 0.008 mg/L; in the assay with Strep. D X66, more than 128 mg/L; in the assay on Strep. D 9960 it was 8 mg/L (≈ 14.7 µM); in the assay on H. influ. C.L. it was 0.03 mg/L (≈ 0.055 µM); in the assay on H. influ. 76, 0.03 mg/L (≈ 0.055 µM). For the same compound, the MIC in the assay on E. coli N10 (setting [3]) was determined as 0.03 mg/L (≈ 0.055 µM); in the assay with E. coli EC14 it was 0.015 mg/L (≈ 0.0275 µM); with E. coli TEM, 0.015 mg/L (≈ 0.0275 µM); in the assay with Klebsiella X26 it was 0.015 mg/L (≈ 0.0275 µM); in the assay with Klebsiella KAE (Klebsiella strain KAE) it was 2 mg/L (≈ 3.67 µM); in the assay on Klebsiella X68, 0.03 mg/L (≈ 0.055 µM). In addition, the values for the MIC (in assay [1] (setting [4]); against Pseudomonas X528; in the assay on Pseudomonas X239) were 0.03 mg/L (≈ 0.055 µM), 2 mg/L (≈ 3.67 µM) and 8 mg/L (≈ 14.7 µM), respectively.
Turning to `CC(C)(O/N=C(\C(=O)N[C@@H]1C(=O)N2C(C(=O)[O-])=C(C[n+]3ccccc3)CS[C@H]12)c1csc(N)n1)C(=O)O` [Ceftazidime, ceftazidime, reference compound], the MIC came to 8 mg/L (≈ 14.6 µM) in the assay on Staph. aureus X1.1; 32 mg/L (≈ 58.5 µM) in the assay with Staph. aureus V41 (V41, read-out: Agar Dilution MIC); 128 mg/L (≈ 234 µM) against Staph. aureus X400; 32 mg/L (≈ 58.5 µM) in the assay on Staph. aureus S13E; 16 mg/L (≈ 29.3 µM) with Staph. epi EPI1; 16 mg/L (≈ 29.3 µM) against Staph. epi 222. For the same compound, the MIC in the assay on Strep. D X66 is more than 128 mg/L; in the assay with Strep. D 9960, 16 mg/L (≈ 29.3 µM); in the assay with E. coli N10 (N10, read-out: Agar Dilution MIC), 0.25 mg/L (≈ 0.457 µM); in the assay on Klebsiella KAE (Klebsiella) it was 0.5 mg/L (≈ 0.915 µM); in assay [1] (C32, read-out: Agar Dilution MIC), 0.25 mg/L (≈ 0.457 µM); against Pseudomonas X528, 2 mg/L (≈ 3.66 µM). The compound further returned an MIC in the assay with Pseudomonas X239 of 2 mg/L (≈ 3.66 µM).
Turning to `CO/N=C(\C(=O)NC1C(=O)N2C(C(=O)[O-])=C(C[n+]3ccc4scnc4c3)CSC12)c1csc(N)n1` (stereo not drawn) [Example 12, syn-7-[2-(2-aminothiazol-4-yl)-2-methoxyiminoacetamido]-3-(thiazolo[4,5-c]pyridinium-5-ylmethyl)-3-cephem-4-carboxylate], the MIC in the assay on Staph. aureus X1.1 turned out to be 1 mg/L (≈ 1.88 µM); in the assay on Staph. aureus V41 (setting [2]), 2 mg/L (≈ 3.76 µM); against Staph. aureus X400 it was 2 mg/L (≈ 3.76 µM); in the assay with Staph. aureus S13E it was 8 mg/L (≈ 15 µM); with Staph. epi EPI1 it was 2 mg/L (≈ 3.76 µM); against Strep. A C203, 0.015 mg/L (≈ 0.0282 µM). Further, the MIC in the assay on Strep. PN PARK is 0.015 mg/L (≈ 0.0282 µM); in the assay with Strep. D X66 it was 128 mg/L (≈ 241 µM); against Strep. D 9960, 4 mg/L (≈ 7.52 µM); in the assay on E. coli N10 (setting [3]), 0.03 mg/L (≈ 0.0564 µM); in the assay with E. coli EC14 it was 0.015 mg/L (≈ 0.0282 µM); with Klebsiella X26, 0.015 mg/L (≈ 0.0282 µM). In addition, the MIC in the assay on Klebsiella KAE (Klebsiella strain KAE) was 4 mg/L (≈ 7.52 µM); with Klebsiella X68 it was 0.03 mg/L (≈ 0.0564 µM); in [1] (setting [4]) it was 0.03 mg/L (≈ 0.0564 µM); in the assay with Salmonella X514 it was 0.03 mg/L (≈ 0.0564 µM); in the assay with Pseudomonas X528 it was 1 mg/L (≈ 1.88 µM); in the assay with Pseudomonas X239, 2 mg/L (≈ 3.76 µM).
In the case of `CCc1nc2c[n+](CC3=C(C(=O)[O-])N4C(=O)C(NC(=O)/C(=N\OC)c5csc(N)n5)C4SC3)ccc2s1` (stereo not drawn) [Example 14, syn-7-[2-(2-aminothiazol-4-yl)-2-methoxyiminoacetamido]-3-(2-ethylthiazolo[4,5-c]pyridinium-5-ylmethyl)-3-cephem-4-carboxylate], the MIC with Staph. aureus X1.1 turned out to be 1 mg/L (≈ 1.79 µM); with Staph. aureus V41 (setting [2]) it was 4 mg/L (≈ 7.15 µM); in the assay with Staph. aureus X400, 32 mg/L (≈ 57.2 µM); with Staph. aureus S13E, 4 mg/L (≈ 7.15 µM); against Staph. epi EPI1, 2 mg/L (≈ 3.57 µM); in the assay on Staph. epi 222 it was 1 mg/L (≈ 1.79 µM). Moreover, the MIC in the assay with Strep. A C203 was less than 0.008 mg/L; in the assay with Strep. PN PARK, less than 0.008 mg/L; in the assay on Strep. D X66 it was more than 128 mg/L; with Strep. D 9960 it was 4 mg/L (≈ 7.15 µM); with H. influ. 76 it was 0.015 mg/L (≈ 0.0268 µM); in the assay on E. coli N10 (setting [3]), 0.03 mg/L (≈ 0.0536 µM). Also, the MIC with E. coli EC14 is 0.015 mg/L (≈ 0.0268 µM); in the assay on E. coli TEM, 0.015 mg/L (≈ 0.0268 µM); in the assay with Klebsiella X26, less than 0.008 mg/L; with Klebsiella KAE (Klebsiella strain KAE) it was 2 mg/L (≈ 3.57 µM); with Klebsiella X68, 0.03 mg/L (≈ 0.0536 µM); in the assay with Pseudomonas X528 it was 4 mg/L (≈ 7.15 µM). The compound also displayed an MIC against Pseudomonas X239 of 4 mg/L (≈ 7.15 µM).
